Patent publication US9434688B2, “Indole derivatives as selective androgen receptor modulators (SARMS)” (Janssen Pharmaceutica, NV, priority 2004, dated 2016)
“And” between values parts separate entries of the source, which are not always exact repeats. Equal values may be shown once.

Key:
androgen receptor [1] = molecular target: T1, androgen receptor (Rattus norvegicus, UniProt P15207); assay: Androgen Receptor Binding Using Rat Ventral Prostate Cytosol; parameters: from tissue; host or cells: ventral prostate cytosol of castrated male Sprague Dawley or Wistar rats; conditions: 3 µM
T1 sequence (P15207 1-902): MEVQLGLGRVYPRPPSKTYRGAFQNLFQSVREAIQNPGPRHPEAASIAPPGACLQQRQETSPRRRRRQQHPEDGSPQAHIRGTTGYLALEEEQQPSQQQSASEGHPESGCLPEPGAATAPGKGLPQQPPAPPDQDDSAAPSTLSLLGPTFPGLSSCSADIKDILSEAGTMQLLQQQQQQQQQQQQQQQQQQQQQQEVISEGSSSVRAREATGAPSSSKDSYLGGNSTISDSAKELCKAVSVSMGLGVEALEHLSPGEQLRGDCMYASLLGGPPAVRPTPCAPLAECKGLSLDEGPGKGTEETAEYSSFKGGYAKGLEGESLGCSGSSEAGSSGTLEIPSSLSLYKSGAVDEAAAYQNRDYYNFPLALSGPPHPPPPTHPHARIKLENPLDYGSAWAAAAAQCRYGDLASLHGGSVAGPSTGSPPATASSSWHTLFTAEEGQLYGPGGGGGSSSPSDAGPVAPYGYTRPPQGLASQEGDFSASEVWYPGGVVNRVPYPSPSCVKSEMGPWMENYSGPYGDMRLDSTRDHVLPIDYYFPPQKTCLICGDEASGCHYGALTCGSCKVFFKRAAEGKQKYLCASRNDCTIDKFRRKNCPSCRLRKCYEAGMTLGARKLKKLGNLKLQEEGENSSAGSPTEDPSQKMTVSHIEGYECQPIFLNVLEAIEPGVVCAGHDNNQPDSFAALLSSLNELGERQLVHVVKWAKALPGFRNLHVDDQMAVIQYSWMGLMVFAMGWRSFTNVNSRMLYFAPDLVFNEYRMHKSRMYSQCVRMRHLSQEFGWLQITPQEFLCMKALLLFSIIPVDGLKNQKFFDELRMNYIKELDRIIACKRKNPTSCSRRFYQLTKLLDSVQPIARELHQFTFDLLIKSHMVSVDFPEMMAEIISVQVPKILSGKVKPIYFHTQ

androgen receptor [2] = molecular target: T1, androgen receptor; assay: L929 Androgen Receptor Functional Assay, Adenovirus Transduction; assay type: cell-based; parameters: expressed in transfected cells; host or cells: L929 cells transduced with adenovirus AdEasy+rAR; conditions: concentration of 3000 nM, 3 µM
Method: L929 cells were plated in 96-well plates at 20,000 cells per well, in DMEM/F12 (GIBCO) containing 10% (v/v) charcoal-treated fetal bovine serum (Hyclone) and lacking phenol red. The plates were then incubated overnight at 37° C. in 5% (v/v) humidified CO2.
Test compound dilutions were prepared in 100% (v/v) DMSO, if necessary. Each dilution was made to 1250× the final desired assay concentration.
First, 2 mL of DMEM/F12 lacking phenol red was pipetted into the wells of a 2-mL 96-well assay block. Next, 4 μL of the 1250× test compound dilutions were pipetted into each well of the assay block. The mixtures within the well were then carefully mixed by pipette.
In a 15 mL or 50 mL sterile centrifuge tube, a 2.5 nM (2.5×) dilution of R1881 (methyl-trienolone) in DMEM/F12 lacking phenol red was prepared.
In a second 15 mL or 50 mL centrifuge tube a solution containing an equal volume of DMEM to the first and an equal volume of 100% (v/v) DMSO to the volume of R1881 used in the first tube was prepared.
In a 15 mL or 50 mL sterile centrifuge tube, a dilution in DMEM/F12 of the adenovirus AdEasy+rAR at an moi of 1:500 per well was prepared.
The medium was removed from the 96-well plates by inversion and dried, inverted, very briefly. As soon as possible after medium removal, 40 μL of the diluted unlabeled test compound was added to each well, in duplicate. To each well designated for antagonist testing was added 40 μL of the 2.5 nM R1881 dilution to the wells for antagonist testing. To each well designated for agonist testing was added 40 μL of the DMSO dilution. Then 20 μL of the diluted adenovirus were added to all wells. The plates were incubated for 48 hours at 37° C. in 5% (v/v) humidified CO2.
To each well was added 100 μL of Steady-Glo luciferase assay substrate (Promega) and the plates were placed on a rotary shaker for 1 min. The plates were then incubated at room temperature in the dark for one hour. The contents of each well were then transferred to a white microtiter plate (Packard) and read on a Luminoskan Ascent (Thermo Lab Systems).
L929 AR percent activity was determined by testing dilutions of the test compound using a concentration of 3000 nM unless otherwise noted. L929 percent inhibition was determined by testing dilutions of the test compound using a concentration of 3000 nM. […] Luciferase activity per well were measured and EC50s and IC50s determined by linear regression.

CCSCC(O)c1cc2cc([N+](=O)[O-])c(C(F)(F)F)cc2[nH]1 (racemic) [compound 158]
% Inhibition (androgen receptor [1]): 52%
% Activity (androgen receptor [2]; L929 agonist testing): 3% and 2%
% Inhibition (androgen receptor [2]; L929 antagonist testing with R1881): 21% and 29%
